These results are taken from patent publication US20090117200A1, “Fungicide Composition Comprising a Phosphorous Acid Derivative, a Mandelamide Type Compound and a Further Fungicide Compound” (priority 2005, published 2009).

Each structure is given as a SMILES string.

Experiment [1] relates to Plasmopara viticola. As to the kind of experiment: Example 3: preventive 72 h application on vine downy mildew, phosphorous acid / mandipropamid / folpet, TAMMES analysis. The experiment is classed as in vivo. The procedure:
(§1) Vine plants (variety Cabernet Sauvignon) were grown in a sandy soil in plastic pots with a single plant per pot.
The following ratio was tested: phosphorous acid (A)/mandipropamid (B)/folpet (C) respectively: 1,500 g a.i./ha+75 g a.i./ha+750 g a.i./ha (ratio 20/1/10).
The dose range tested for phosphorous acid equivalent (329 g/kg) was: 3,000 g a.i./ha, 1,500 g a.i./ha, 1,000 g a.i./ha, 750 g a.i./ha, 500 g a.i./ha, 250 g a.i./ha, 80 g a.i./ha, 40 g a.i./ha, 20 g a.i./ha, 10 g a.i./ha, 2 g a.i./ha and 0.2 g a.i./ha.
The dose range for mandipropamid+folpet was: 75+750 g a.i./ha, 4+40 g a.i./ha, 2+20 g a.i./ha, 1+10 g a.i./ha, 0.5+5 g a.i./ha, 0.1+1 g a.i./ha and 0.01+0.1 g a.i./ha.
For the ternary mixture phosphorous acid equivalent+mandipropamid+folpet, the dose range studied was: 1,500+75+750 g a.i./ha, 80+4+40 g a.i./ha, 40+2+20 g a.i./ha, 20+1+10 g a.i./ha, 10+0.5+5 g a.i./ha, 2+0.1+1 g a.i./ha and 0.2+0.01+0.1 g a.i./ha.
(§2) Four days before treatment, phosphorous acid was applied at 1,500 g a.i./ha on plants planned to be treated later with phosphorous acid based product alone or in mixture.
(§3) A three days interval separated treatment and inoculation. Three days after the treatment, each plant was inoculated by spraying an aqueous suspension of sporangia of Plasmopara viticola obtained from infected leaves and sensitive to all the tested compounds. The concentration of sporangia was about 100,000 units per ml.
(§4) After contamination the plants were incubated for 7 days at 22° C. in a saturated atmosphere. Seven days after contamination, symptoms were evaluated in terms of the extent of the lower surface of the leaves infected, in comparison with untreated (UTC) but contamined plants.
(§5) The efficacy of the treatment was calculated using the Abbott formula:
(§6) efficacy=(untreated−treated/untreated)×100
(§7) The concentrations of the fungicide active substances alone or in mixture giving % efficacy for each component were determined based on the sigmoid curve dose/response model with their confidence intervals. The analysis of the results was made according to the TAMMES model (Isoboles, a graphic representation of synergism in pesticides, Neth. J. Plant Path. 70 (1964): 73-80).

Experiment [2] deals with Plasmopara viticola. As to the kind of experiment: Example 4: preventive 72 h application on vine downy mildew, phosphorous acid / mandipropamid / mefenoxam, TAMMES analysis. It counts as in vivo. On the procedure:
as §1, §2, §3, §4, §5, §6, §7

Setting [3] is: sum of the components, or dose of the single compound, vine, preventive 72 h.

For `OP(O)O` [phosphorous acid], the ED70 in the experiment with Plasmopara viticola [1] (Table 2 of Example 3: calculated according to efficacy observed, 70% of disease control) was 6.2 g a.i./ha; in the experiment on Plasmopara viticola [2] (Table 2 of Example 4: practical 70% of disease control observed), 650 g a.i./ha. In addition, the ED90 in the experiment with Plasmopara viticola [1] (Table 2 of Example 3: calculated according to efficacy observed, 90% of disease control) is 145 g a.i./ha; in the experiment with Plasmopara viticola [2] (Table 2 of Example 4: practical 90% of disease control observed), 1,500 g a.i./ha. In addition, the “Practical dose for 70% efficacy, total” value in the experiment with Plasmopara viticola [1] (setting [3]) was determined as 6.2 g a.i./ha. Besides, the “Practical dose for 90% efficacy, total” value with Plasmopara viticola [1] (setting [3]) is listed as 145 g a.i./ha.
